Reference: patent US6569880B2, “Bis(benzimidazole) derivatives serving as potassium blocking agents” (Neurosearch A/S, priority 1998, dated 2003)
Counter-ions that a name gives are not always drawn.

Q: With `Nc1nc2ccccc2n1CCCCCCn1c(N)nc2ccccc21` (as salt: HCl) [Compound 1b, 1,6-Bis(2-aminobenzimidazol-1-yl)hexane] as the compound, how does the melting point read?
A: 145 to 147 °C

Q: Which melting point does the source give for `Nc1nc2ccccc2n1CCCn1c(N)nc2ccccc21` [Compound 1d, 1,3-Bis(2-aminobenzimidazol-1-yl)propane] here?
A: 220 °C (dec.)

Q: With `Nc1nc2ccccc2n1CCn1c(N)nc2ccccc21` [Compound 1e, 1,2-Bis(2-aminobenzimidazol-1-yl)ethane] as the compound, how does the melting point read?
A: 257 to 258 °C
